Source: patent US12036222B2, “Methods of treating cancers overexpressing CARM1 with EZH2 inhibitors and a PARP inhibitor” (The Wistar Institut of Anatomy and Biology, priority 2018, dated 2024)
Entries after “also recorded” stand apart in the source; their conditions may differ.

Test system: A1847 parental and CARM1 knockout cells
Test: Epigenetic targeting small molecule set screen (14-day colony formation)
Format: cell-based, human
Details: 14 days, normalized to vehicle
Procedure: FIG. 26 illustrates that CARM1-expressing cells are selectively sensitized to EZH2 inhibitors. Equal number of parental control or CARM1 knockout […] cells were plated and treated with each of the 23 individual epigenetic inhibitors for 14 days. The media with the inhibitors was refreshed every 3 days. Cell growth was quantified as integrated density using NIH Image J software. Quantification of the average integrated density graphed as a scatter plot. The X-axis indicates the relative growth of treated CARM1 high parental […] cells compared with DMSO vehicle controls. Y-axis indicates the relative growth of treated CARM1 knockout […] cells compared with DMSO vehicle controls. n=4; and error bars represents SEM. FIG. 27 illustrates a table of EZH2 inhibitors that are selective against CARM1 expression. CARM1-high parental controls and CARM1 knockout […] cells were treated with the indicated concentration of the small molecules in a 14-day colony formation assay. Integrated density for each well was calculated using NIH Image J software. The relative growth of the indicated cells was determined by normalizing to the vehicle control treated cells. n=4 and p-value was calculated using a two-tailed t-test. […] parental and CARM1 knockout cells were plated in 24-well plates and treated with 24 epigenetic compounds. Cell medium was changed every three days with appropriate drug doses for 14 days or until control wells became confluent. Colonies were washed twice with PBS and fixed with 10% methanol and 10% acetic acid in distilled water. Fixed colonies were stained with 0.005% crystal violet. Integrated density was measured using NIH ImageJ software as a surrogate for cell growth.

| Compound | selective growth suppression of CARM1-expressing vs CARM1 KO cells |
| --- | --- |
| CC(=O)Nc1ccc(C(=O)Nc2ccccc2N)cc1 [CI994] | equally effective in suppressing the growth of both CARM-expressing and KO cells; also recorded: showed no difference between parental and CARM1 knockout cells |
| CCCc1cc(C)[nH]c(=O)c1CNC(=O)c1cc(-c2ccc(N3CCN(C(C)C)CC3)nc2)cc2c1cnn2C(C)C [UNC1999, 1-isopropyl-6-(6-(4-isopropylpiperazin-1-yl)pyridin-3-yl)-N-((6-methyl-2-oxo-4-propyl-1,2-dihydropyridin-3-yl)methyl)-1H-indazole-4-carboxamide] | showed selectivity against CARM1-expressing cells; also recorded: selectively sensitive |
